Several values for one entry are separate records, joined by “and”; a condition that tells them apart may be missing. Equal entries are not always repeated. Toxic doses and inconclusive results are not listed.
System: P388 leukemia ip, CD2F1 mice, survival T/C
Experiment: NCI In Vivo Anticancer Drug Screen. Data for tumor model P388 Leukemia (intraperitoneal) in CD2F1 (CDF1) mice
Details: endpoint: median survival time, higher = longer survival
Procedure, shortened: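 Mice carrying the transplanted tumor received test compound or vehicle. Survival was recorded in each group, and the value is the treated-group measurement divided by that of the vehicle-treated control group.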

[1] = dose: 25.0 mg/kg/injection, schedule: Q01DX009 (ip), vehicle: saline with Tween-80
[2] = dose: 15.0 mg/kg/injection, schedule: Q01DX005 (ip), vehicle: saline with Tween-80
[3] = dose: 30.0 mg/kg/injection, schedule: Q01DX005 (ip), vehicle: saline with Tween-80
[4] = dose: 50.0 mg/kg/injection, schedule: Q01DX009 (ip), vehicle: Klucel (hydroxypropylcellulose) (HPC)
[5] = dose: 100.0 mg/kg/injection, schedule: Q01DX009 (ip), vehicle: Klucel (hydroxypropylcellulose) (HPC)
[6] = dose: 200.0 mg/kg/injection, schedule: Q01DX009 (ip), vehicle: Klucel (hydroxypropylcellulose) (HPC)
[7] = dose: 12.5 mg/kg/injection, schedule: Q01DX005 (ip), vehicle: saline with Tween-80
[8] = dose: 25.0 mg/kg/injection, schedule: Q01DX005 (ip), vehicle: saline with Tween-80
[9] = dose: 50.0 mg/kg/injection, schedule: Q01DX005 (ip), vehicle: saline with Tween-80
[10] = dose: 100.0 mg/kg/injection, schedule: Q04DX003 (ip), vehicle: Klucel (hydroxypropylcellulose) (HPC)
[11] = dose: 200.0 mg/kg/injection, schedule: Q04DX003 (ip), vehicle: Klucel (hydroxypropylcellulose) (HPC)
[12] = dose: 400.0 mg/kg/injection, schedule: Q04DX003 (ip), vehicle: Klucel (hydroxypropylcellulose) (HPC)
[13] = dose: 60.0 mg/kg/injection, schedule: Q01DX005 (ip), vehicle: Klucel (hydroxypropylcellulose) (HPC)
[14] = dose: 120.0 mg/kg/injection, schedule: Q01DX005 (ip), vehicle: Klucel (hydroxypropylcellulose) (HPC)
[15] = dose: 100.0 mg/kg/injection, schedule: Q01DX005 (ip), vehicle: saline with Tween-80
[16] = dose: 200.0 mg/kg/injection, schedule: Q01DX005 (ip), vehicle: saline with Tween-80
[17] = dose: 50.0 mg/kg/injection, schedule: Q01DX009 (ip), vehicle: saline with Tween-80
[18] = dose: 50.0 mg/kg/injection, schedule: Q01DX005 (ip), vehicle: Klucel (hydroxypropylcellulose) (HPC)
[19] = dose: 25.0 mg/kg/injection, schedule: Q01DX009 (ip), vehicle: distilled water + Tween-80
[20] = dose: 50.0 mg/kg/injection, schedule: Q01DX009 (ip), vehicle: distilled water + Tween-80
[21] = dose: 60.0 mg/kg/injection, schedule: Q01DX005 (ip), vehicle: saline with Tween-80
[22] = dose: 120.0 mg/kg/injection, schedule: Q01DX005 (ip), vehicle: saline with Tween-80
[23] = dose: 240.0 mg/kg/injection, schedule: Q01DX005 (ip), vehicle: saline with Tween-80
[24] = dose: 100.0 mg/kg/injection, schedule: Q01DX009 (ip), vehicle: saline with Tween-80
[25] = dose: 12.5 mg/kg/injection, schedule: Q01DX005 (ip), vehicle: Klucel (hydroxypropylcellulose) (HPC)
[26] = dose: 25.0 mg/kg/injection, schedule: Q01DX005 (ip), vehicle: Klucel (hydroxypropylcellulose) (HPC)

CCCC1CC[N-]CC1.CCCC1CC[N-]CC1.[Br][Pt+2]([Br])([Br])[Br]
T/C (dose: 1.56 mg/kg/injection, schedule: Q01DX009 (ip), vehicle: saline with Tween-80): 94 % of control
T/C (dose: 3.13 mg/kg/injection, schedule: Q01DX009 (ip), vehicle: saline with Tween-80): 87 % of control
T/C (dose: 6.25 mg/kg/injection, schedule: Q01DX009 (ip), vehicle: saline with Tween-80): 95 % of control
T/C (dose: 12.5 mg/kg/injection, schedule: Q01DX009 (ip), vehicle: saline with Tween-80): 98 % of control
T/C [1]: 123 % of control

CC1NNC(=S)NN1
T/C [2]: 101 % of control
T/C [3]: 101 % of control

CCOC(=O)C1(n2[nH]c(=O)n(-c3ccccc3)c2=O)CC(C)OC1=O (configuration not stated)
T/C [4]: 94 % of control
T/C [5]: 91 % of control
T/C [6]: 91 % of control

COc1cc2c(c(OC)c1OC)-c1ccc(SC)c(=O)cc1[C@@H](NC(=O)C(F)(F)F)CC2
T/C (dose: 0.08 mg/kg/injection, schedule: Q01DX009 (ip), vehicle: Klucel (hydroxypropylcellulose) (HPC)): 110 % of control and 117 % of control
T/C (dose: 0.16 mg/kg/injection, schedule: Q01DX009 (ip), vehicle: Klucel (hydroxypropylcellulose) (HPC)): 120 % of control and 124 % of control

N=C(N)SCc1ccc2nsnc2c1
T/C [7]: 98 % of control
T/C [8]: 100 % of control
T/C [9]: 98 % of control and 102 % of control

Cc1ccc(-n2nc(C)c3c(N)nc(N)nc32)c(Cl)c1
T/C [10]: 101 % of control
T/C [11]: 101 % of control
T/C [12]: 103 % of control

CC(=O)c1c(O)c2cccc3c2n(c1=O)CCC3
T/C [13]: 96 % of control
T/C [14]: 97 % of control

COC1C(C)(C)C1(Br)Br (configuration not stated)
T/C [9]: 100 % of control
T/C [15]: 99 % of control
T/C [16]: 98 % of control

COc1ccc2nc3cc(Cl)ccc3c(NCCNCCNCCNc3c4ccc(Cl)cc4nc4ccc(OC)cc34)c2c1
T/C [17]: 115 % of control

CCCCCCn1[nH]nc(C(=O)OC)c1=O (tested in a mixture with another compound)
T/C [18]: 94 % of control
T/C (dose: 100.0 mg/kg/injection, schedule: Q01DX005 (ip), vehicle: Klucel (hydroxypropylcellulose) (HPC)): 87 % of control
T/C (dose: 200.0 mg/kg/injection, schedule: Q01DX005 (ip), vehicle: Klucel (hydroxypropylcellulose) (HPC)): 92 % of control

OC1C(CCl)OC(OC2(CCl)OC(CCl)C(O)C2O)C(O)C1O (configuration not stated)
T/C [4]: 94 % of control
T/C [5]: 109 % of control
T/C [6]: 110 % of control

COC(=O)C(Br)CCCC(Br)C(=O)OC (configuration not stated)
T/C [19]: 97 % of control
T/C [20]: 106 % of control
T/C (dose: 100.0 mg/kg/injection, schedule: Q01DX009 (ip), vehicle: distilled water + Tween-80): 103 % of control
T/C (dose: 200.0 mg/kg/injection, schedule: Q01DX009 (ip), vehicle: distilled water + Tween-80): 104 % of control

O=C(/C=C/c1ccccc1O)/C=C/c1ccccc1O
T/C (dose: 8.0 mg/kg/injection, schedule: Q01DX009 (ip), vehicle: saline with Tween-80): 118 % of control
T/C (dose: 12.0 mg/kg/injection, schedule: Q01DX009 (ip), vehicle: saline with Tween-80): 118 % of control
T/C (dose: 18.0 mg/kg/injection, schedule: Q01DX009 (ip), vehicle: saline with Tween-80): 113 % of control
T/C [1]: 115 % of control

CCC1(c2ccc(C)cc2)C(=O)NCNC1=O
T/C [13]: 102 % of control
T/C [14]: 102 % of control
T/C (dose: 240.0 mg/kg/injection, schedule: Q01DX005 (ip), vehicle: Klucel (hydroxypropylcellulose) (HPC)): 100 % of control

N#CC(C(=O)C(=O)C(C#N)c1nc2ccccc2s1)c1nc2ccccc2s1 (configuration not stated)
T/C [21]: 92 % of control
T/C [22]: 101 % of control
T/C [23]: 103 % of control

CCCC(=O)Nc1ncc([N+](=O)[O-])s1
T/C [17]: 95 % of control
T/C [24]: 100 % of control
T/C (dose: 200.0 mg/kg/injection, schedule: Q01DX009 (ip), vehicle: saline with Tween-80): 90 % of control

Cc1ccc(N2CCN(CC(O)COc3cc4ccccc4c4c3CCCC4)CC2)cc1C (configuration not stated)
T/C [10]: 95 % of control
T/C [11]: 104 % of control
T/C [12]: 108 % of control

CCOP(O)(=S)OCC.[Gd]
T/C [10]: 90 % of control
T/C [11]: 90 % of control
T/C [12]: 90 % of control

CN(C)CCSc1c2ccccc2nc2ccccc12
T/C [25]: 110 % of control
T/C [26]: 110 % of control and 119 % of control
T/C [18]: 100 % of control (2×) and 101 % of control

C[Si](C)(C)Cc1ccccc1C(=O)O
T/C [21]: 100 % of control
T/C [22]: 103 % of control
T/C [23]: 94 % of control

CCB1OC2OC3C4OB(CC)OC4OC3C2O1 (configuration not stated)
T/C [9]: 103 % of control
T/C [15]: 103 % of control
T/C [16]: 103 % of control

CN(C)CCNc1ccc(CO)c2sc3ccc(O)cc3c(=O)c12
T/C [8]: 160 % of control and 162 % of control
T/C [9]: 173 % of control and 175 % of control
T/C [15]: 190 % of control and 194 % of control
T/C [16]: 222 % of control

Nc1cc(Cl)c(N(CCO)C2=NCCN2)c(Cl)c1
T/C [25]: 92 % of control
T/C [26]: 88 % of control
T/C [18]: 105 % of control and 89 % of control

CC1(C)OC2(C)CCC1C1C2N1C(=O)Nc1cccc(Cl)c1 (configuration not stated)
T/C [9]: 101 % of control
T/C [15]: 92 % of control
T/C [16]: 89 % of control

O=C(O)C1CC[N-]CC1.O=C(O)C1CC[N-]CC1.O=C(O)C1CC[N-]CC1.O=C(O)C1CC[N-]CC1.[Cl][Rh][Cl]
T/C (dose: 67.0 mg/kg/injection, schedule: Q01DX009 (ip), vehicle: saline with Tween-80): 100 % of control
T/C [24]: 109 % of control
T/C (dose: 150.0 mg/kg/injection, schedule: Q01DX009 (ip), vehicle: saline with Tween-80): 113 % of control

O=C(Nc1nncs1)C(F)(F)F
T/C (dose: 12.5 mg/kg/injection, schedule: Q01DX009 (ip), vehicle: distilled water + Tween-80): 111 % of control
T/C (dose: 12.5 mg/kg/injection, schedule: Q01DX009 (ip), vehicle: water): 109 % of control
T/C [19]: 118 % of control
T/C [20]: 163 % of control
T/C (dose: 50.0 mg/kg/injection, schedule: Q01DX009 (ip), vehicle: water): 159 % of control

COc1ccc(Cc2cc3c(cc2OCC(=O)Nc2ccccn2)OCO3)cc1
T/C (dose: 6.25 mg/kg/injection, schedule: Q01DX005 (ip), vehicle: saline with Tween-80): 92 % of control
T/C [7]: 90 % of control
T/C [8]: 86 % of control
T/C [15]: 90 % of control
T/C [16]: 90 % of control

Cc1ccc(CNc2cccnc2)cc1
T/C (dose: 100.0 mg/kg/injection, schedule: Q04DX003 (ip), vehicle: saline with Tween-80): 104 % of control
T/C (dose: 200.0 mg/kg/injection, schedule: Q04DX003 (ip), vehicle: saline with Tween-80): 95 % of control
T/C (dose: 400.0 mg/kg/injection, schedule: Q04DX003 (ip), vehicle: saline with Tween-80): 90 % of control

c1csc(-c2ccn[nH]2)c1
T/C [2]: 100 % of control
T/C [3]: 100 % of control
T/C [21]: 116 % of control and 91 % of control

Cc1cnc(C2OCCO2)c2cccc(N)c12
T/C [4]: 104 % of control
T/C [5]: 105 % of control
T/C [6]: 112 % of control

CC(C)c1ccc([C](C)(CC(C)(C)C)[Sn]([CH3])([CH3])[CH3])cc1 (configuration not stated)
T/C (dose: 3.13 mg/kg/injection, schedule: Q04DX003 (ip), vehicle: Klucel (hydroxypropylcellulose) (HPC)): 105 % of control
T/C (dose: 6.25 mg/kg/injection, schedule: Q04DX003 (ip), vehicle: Klucel (hydroxypropylcellulose) (HPC)): 92 % of control
T/C (dose: 12.5 mg/kg/injection, schedule: Q04DX003 (ip), vehicle: Klucel (hydroxypropylcellulose) (HPC)): 91 % of control

— PubChem BioAssay AID330 (DTP/NCI, 2004)
